# In patent US20210346411A1 (priority 2020, published 2021):
# Entries after “also recorded” stand apart in the source; their conditions may differ.
# Tests used:
# [1] = tested on: SARS-CoV-2 (2019-nCoV) virus (nCoV-2019BetaCoV/Wuhan/WIV04/2019 strain); assay: Reduction of viral nucleic acid load of Vero E6 cells infected by SARS-CoV-2 (qRT-PCR of supernatant); assay type: cell-based; design: Virus genome copy number: unit not given here; conditions: for Virus genome copy number: 48 h, Vero E6, 100TCID50, supernatant
# Vero E6 cells = assay: Cytotoxicity test of drug (CCK-8 kit); assay type: cell-based; conditions: all test concentrations (0.14-100 μM), 48 hours
# EBOV = conditions: intravenous 10 mg/kg per day for consecutive 12 days, treatment started three days after virus exposure; cited from earlier work
smiles,measurement,setting,value
"CCC(CC)COC(=O)[C@H](C)N[P@](=O)(OC[C@H]1O[C@@](C#N)(c2ccc3c(N)ncnn23)[C@H](O)[C@@H]1O)Oc1ccccc1 [Remdesivir, 2-ethylbutyl (2S)-2-[[[(2R,3S,4R,5R)-5-(4-aminopyrrolo[2,1-f][1,2,4]triazin-7-yl)-5-cyano-3,4-dihydroxyoxolan-2-yl]methoxy-phenoxyphosphoryl]amino]propanoate]",Virus genome copy number,[1]; 0.14 μM,6120820311.5
same,Virus genome copy number,[1]; 0.41 μM,1751863138.5
same,Virus genome copy number,[1]; 1.23 μM,879273650.5
same,Virus genome copy number,[1]; 3.70 μM,20287512.5
same,Virus genome copy number,[1]; 11.11 μM,16308516.5
same,Virus genome copy number,[1]; 33.33 μM,12429732
same,Virus genome copy number,[1]; 100 μM,9010444.5
same,inhibition of the replication of the SARS-CoV-2 virus genome in the infected supernatant,"[1]; concentrations of 100 μM, 33 μM, 11.1 μM and 3.7 μM",could effectively inhibit
same,reduction of the viral nucleic acid load,"[1]; drug concentration of 33 μM, 48 hours after infection, Vero E6",an order of magnitude
same,viral nucleic acid load in cells infected by SARS-CoV-2,[1]; micromolar concentration level,can reduce the viral nucleic acid load
same,cytotoxicity (toxic effect on the cells),Vero E6 cells,no cytotoxicity was observed; also recorded: no toxic effect
same,EBOV-infected animals protected from death,EBOV,100%
same,replication of EBOV,EBOV,significantly inhibit
